Experiment [1] relates to NCI-H292 lung cancer cells. The experiment can be described thus: FDA drug screening, complete media vs cholesterol-free media with simvastatin (TABLE 2). It is filed as cell-based, human.
In experiment [2] the test system is NCI-H292 lung cancer cells. Description: FDA drug screening, complete media vs cholesterol-free media without statin (TABLE 1). It is filed as cell-based, human.
Setting [3] is: NCI-H292 cells, cholesterol-free media with simvastatin 0.04 μM, FDA drug library screen (TABLE 2).
The mark [4] stands for this setting: NCI-H292 cells, complete media, FDA drug library screen (TABLE 2).
[5] abbreviates: NCI-H292 cells, cholesterol-free media without statin, FDA drug library screen.
Where [6] appears, read: NCI-H292 cells, complete media, FDA drug library screen.
[7] abbreviates: NCI-H292 cells, drug in cholesterol-free media with simvastatin 0.04 μM.
Where [8] appears, read: NCI-H292 cells, drug in complete media.
Where [9] appears, read: complete media vs cholesterol-free media + simvastatin (0.04 μM), >0 enhanced anti-cancer activity, about 0 neutral, <0 antagonist.
Setting [10] is: NCI-H292 cells, cholesterol-free media without statin.
[11] abbreviates: NCI-H292 cells, FDA drug library screen, cholesterol-free media with simvastatin 0.04 μM.
Where [12] appears, read: NCI-H292 cells, FDA drug library screen, complete media.
[13] abbreviates: complete vs cholesterol-free media, >0 enhanced anti-cancer activity, about 0 neutral, <0 antagonist.
[14] abbreviates: Complete minus Cholesterol-free, >0 enhanced anti-cancer activity, about 0 neutral, <0 antagonist.

Where a name gives a salt, the structure may show the parent alone. Read-outs that look alike come from different tables or passages of the source.

With Vincristine (sulfate), the “Cholesterol-free media + simvastatin (0.04 μM)” value in experiment [1] (setting [3]) is given as 0.1488. In experiment [1] (setting [4]), the “Complete Media” value is 0.1119. Besides, the Difference in experiment [1] (complete media minus cholesterol-free media + simvastatin (0.04 μM), […]) was −0.04; in experiment [2] (Complete minus Cholesterol-free, […]), 0.02. Besides, the Cholesterol-free in experiment [2] (setting [5]) turned out to be 0.04497. Besides, the Complete in experiment [2] (setting [6]) is reported as 0.06722.
For the compound `OC(CCN1CCCC1)(c1ccccc1)C1CCCCC1` (stereo not drawn) [Procyclidine (hydrochloride)], the “Cholesterol-free media + simvastatin (0.04 μM)” value in experiment [1] (setting [7]) worked out at 1.237. In addition, in experiment [1] (setting [8]), the “Complete Media” value came out at 1.076. Further, the Difference in experiment [1] (setting [9]) is reported as −0.16; in experiment [2] (complete vs cholesterol-free media, greater than 0 enhanced anti-cancer activity, about 0 neutral, below 0 antagonists), −0.46. Also, the Cholesterol-free in experiment [2] (setting [10]) was found to be 1.459. The same compound came in with a Complete in experiment [2] (NCI-H292 cells, complete media) of 0.997.
Consider `Nc1nc(NC2CC2)c2ncn([C@H]3C=C[C@@H](CO)C3)c2n1` [Abacavir], for which the “Cholesterol-free media + simvastatin (0.04 μM)” value in experiment [1] (setting [11]) is 1.851. The “Complete Media” value in experiment [1] (setting [12]) was 2.026. The Difference in experiment [1] (complete media minus cholesterol-free media + simvastatin, >0 enhanced anti-cancer activity, about 0 neutral, <0 antagonist) amounted to 0.18; in experiment [2] (setting [13]), 0.56. In experiment [2] (setting [5]), this compound yielded a Cholesterol-free of 0.6425. In experiment [2] (setting [6]), this compound returned a Complete of 1.2.
In the case of `COc1cc2c3cc1Oc1c(OC)c(OC)cc4c1[C@@H](Cc1ccc(O)c(c1)Oc1ccc(cc1)C[C@@H]3N(C)CC2)N(C)CC4` [Berbamine (dihydrochloride)], the “Cholesterol-free media + simvastatin (0.04 μM)” value in experiment [1] (setting [11]) is 0.2857. Besides, the “Complete Media” value in experiment [1] (setting [12]) came to 1.04. Moreover, the Difference in experiment [1] (complete media minus cholesterol-free media + simvastatin, […]) was 0.75; in experiment [2] (complete vs cholesterol-free media, […]) it was −0.38. The compound also registered a Cholesterol-free in experiment [2] (setting [10]) of 1.782. The Complete in experiment [2] (NCI-H292 cells, complete media) turned out to be 1.401.
`COc1c(N2CCNC(C)C2)c(F)cc2c(=O)c(C(=O)O)cn(C3CC3)c12` (stereo not drawn) [Gatifloxacin (hydrochloride)]: the “Cholesterol-free media + simvastatin (0.04 μM)” value in experiment [1] (setting [11]) is 0.9302. Moreover, the “Complete Media” value in experiment [1] (setting [12]) is on record as 0.7736. Further, the Difference is −0.16 in experiment [1] (setting [9]) and −0.09 in experiment [2] (Complete minus Cholesterol-free, greater than 0 enhanced anti-cancer activity, about 0 neutral, below 0 antagonist). This compound registered a Cholesterol-free in experiment [2] (NCI-H292 cells, FDA drug library screen, cholesterol-free media without statin) of 1.038. The Complete in experiment [2] (setting [12]) was determined as 0.9512.
Consider `CC#CCC(C)[C@H](O)/C=C/[C@@H]1[C@H]2C/C(=C/CCCC(=O)O)C[C@H]2C[C@H]1O` (stereo partly drawn) [Iloprost], for which the “Cholesterol-free media + simvastatin (0.04 μM)” value in experiment [1] (setting [7]) is 1.189. Moreover, the “Complete Media” value in experiment [1] (setting [8]) was 0.9963. For the same compound, the Difference in experiment [1] (setting [9]) is on record as −0.19; in experiment [2] (Complete minus Cholesterol-free, greater than 0 enhanced anti-cancer activity, about 0 neutral, below 0 antagonists), −0.58. In experiment [2] (NCI-H292 cells in cholesterol-free media without statin), this compound had a Cholesterol-free of 1.473. Besides, the Complete in experiment [2] (NCI-H292 cells in complete media) was 0.8944.
For the compound `CCC(=O)O[C@H](CC(=O)O)C[N+](C)(C)C` [Levocarnitine propionate (hydrochloride)], the “Cholesterol-free media + simvastatin (0.04 μM)” value in experiment [1] (setting [3]) was determined as 1.106. The “Complete Media” value in experiment [1] (setting [4]) is 1.114. Also, the Difference in experiment [1] (complete media minus cholesterol-free media + simvastatin (0.04 μM), >0 enhanced anti-cancer activity, about 0 neutral, <0 antagonist) is on record as 0.01; in experiment [2] (setting [14]), −0.30. The compound further yielded a Cholesterol-free in experiment [2] (setting [10]) of 1.256. The compound further showed a Complete in experiment [2] (NCI-H292 cells, complete media) of 0.9514.
`O=C(CO)[C@@H](O)[C@H](O)[C@H](O)CO` [Fructose]: the “Cholesterol-free media + simvastatin (0.04 μM)” value in experiment [1] (NCI-H292 cells, FDA library drug in cholesterol-free media with simvastatin 0.04 μM) was 2.032. Further, the “Complete Media” value in experiment [1] (NCI-H292 cells, FDA library drug in complete media) is listed as 1.165. The results for the Difference in experiment [1] (setting [9]) and in experiment [2] (setting [13]) were −0.87 and 0.28, respectively. The Cholesterol-free in experiment [2] (setting [5]) was 1.048. In experiment [2] (setting [6]), this compound had a Complete of 1.329.
Take `CCCC(CCC)C(=O)O` [Valproic acid (sodium salt)]: the “Cholesterol-free media + simvastatin (0.04 μM)” value in experiment [1] (setting [7]) amounted to 0.961. Further, the “Complete Media” value in experiment [1] (setting [8]) amounted to 0.7238. For the same compound, the Difference in experiment [1] (setting [9]) is −0.24; in experiment [2] (setting [14]) it was −0.26. For the same compound, in experiment [2] (setting [10]), the Cholesterol-free is 0.9818. Moreover, in experiment [2] (NCI-H292 cells, complete media), the Complete was determined as 0.7267.
As for `O=C(O)[C@@H]1CCCN1` [L-Proline], in experiment [1], the “Cholesterol-free media + simvastatin (0.04 μM)” value was 1.794, the “Complete Media” value is recorded as 1.088 and the Difference is −0.71. In experiment [2], the Cholesterol-free is listed as 1.37, the Complete is given as 0.9909 and the Difference was −0.38.
